# In PMC8450076, “Structural and mechanistic insights into the Artemis endonuclease and strategies for its inhibition” (Nucleic Acids Research, 2021):
# Key:
# [1] = biological target: T1, Artemis (SNM1C/DCLRE1C) (Homo sapiens, UniProt Q96SD1); assay: biochemical
# Target sequence in this assay (Q96SD1 whole entry, the tested form may be a part): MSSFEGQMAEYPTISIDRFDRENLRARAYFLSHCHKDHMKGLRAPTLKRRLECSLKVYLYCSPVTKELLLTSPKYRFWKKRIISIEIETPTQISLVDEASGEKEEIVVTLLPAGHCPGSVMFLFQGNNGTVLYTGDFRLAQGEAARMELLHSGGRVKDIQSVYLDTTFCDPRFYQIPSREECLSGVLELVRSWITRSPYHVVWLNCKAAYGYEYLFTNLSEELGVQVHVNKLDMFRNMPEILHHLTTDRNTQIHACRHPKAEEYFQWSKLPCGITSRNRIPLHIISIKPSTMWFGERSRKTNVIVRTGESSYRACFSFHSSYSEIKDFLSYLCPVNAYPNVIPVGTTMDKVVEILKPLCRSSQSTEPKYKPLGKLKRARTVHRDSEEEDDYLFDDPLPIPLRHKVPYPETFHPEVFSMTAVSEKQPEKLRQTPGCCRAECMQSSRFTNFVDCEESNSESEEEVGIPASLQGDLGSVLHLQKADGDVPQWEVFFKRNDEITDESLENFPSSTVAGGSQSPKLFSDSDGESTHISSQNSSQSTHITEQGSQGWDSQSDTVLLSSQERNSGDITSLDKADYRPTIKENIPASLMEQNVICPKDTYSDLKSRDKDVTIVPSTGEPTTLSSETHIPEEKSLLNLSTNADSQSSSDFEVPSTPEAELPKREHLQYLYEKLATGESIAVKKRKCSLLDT
# [2] = biological target: T1, Artemis (SNM1C/DCLRE1C); assay: X-ray crystal structure ([…] Å) plus real-time fluorescence-based nuclease assay (IC50); assay type: biochemical; design: truncated Artemis catalytic domain, MBL-β-CASP (aa 1-361)
# Description: We solved a structure of ceftriaxone bound to Artemis
# Target sequence in this assay (Q96SD1 1-361): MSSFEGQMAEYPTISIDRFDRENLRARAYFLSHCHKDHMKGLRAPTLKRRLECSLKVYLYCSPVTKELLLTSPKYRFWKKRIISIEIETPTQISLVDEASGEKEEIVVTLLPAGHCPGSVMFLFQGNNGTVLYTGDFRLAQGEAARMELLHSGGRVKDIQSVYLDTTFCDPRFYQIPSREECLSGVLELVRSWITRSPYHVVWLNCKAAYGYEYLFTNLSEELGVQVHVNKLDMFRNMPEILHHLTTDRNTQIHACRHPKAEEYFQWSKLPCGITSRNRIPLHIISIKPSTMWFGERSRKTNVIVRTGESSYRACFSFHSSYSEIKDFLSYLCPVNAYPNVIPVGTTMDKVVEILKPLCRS
structure (smiles),measurement,setting,value
CCN(CC)C(=S)SSC(=S)N(CC)CC [disulfiram],IC50,[1]; read-out: IC50,~10.8 µM
CO/N=C(\C(=O)N[C@@H]1C(=O)N2C(C(=O)O)=C(CSc3nc(=O)c(=O)[nH]n3C)CS[C@H]12)c1csc(N)n1 [ceftriaxone],IC50,[2],65 µM
O=c1c2ccccc2[se]n1-c1ccccc1 [ebselen],IC50,[1],~8.5 µM
CC[P](CC)(CC)=[Au][S][C@@H]1O[C@H](COC(C)=O)[C@@H](OC(C)=O)[C@H](OC(C)=O)[C@H]1OC(C)=O [auranofin],IC50,[1],46 µM
